In patent US8367659B2, “Oxazinyl isoflavonoid compounds, medicaments and use” (Marshall Edwards, Inc., priority 2007, dated 2013):
Read-outs that look alike come from different tables or passages of the source. Marks after values point to notes of the source that are not given here.

Assays:
CP70 = assay: Anti-cancer activity, CP70 ovarian cancer cells (MTT); type: cell-based; settings: 120 h, 5 days
PMA-induced ear oedema = assay: PMA-induced ear swelling in mice; type: in vivo, BALB/c mice; settings: 25 mg/kg i/p; 5 h after PMA
Method: (§1) Groups of 5-6 female BALB/c mice (ARC, WA, Australia), weighing 15-21 g were injected intraperitoneally (i/p) with test compound at 25 mg/kg delivered in polyethylene glycol (PEG) 400: phosphate buffered saline (PBS) 1:1 or ethanol: propanediol: PBS 4:9:7 either 30 min prior to or immediately before the inflammogen was applied to the ears. Mice were anaesthetised using isoflurane and baseline thickness of both ears was measured using a spring micrometer. Each mouse received a total of 20 μL of either AA in ethanol (50 mg/ml or 200 mg/ml) or PMA in either ethanol or acetone (0.2 mg/ml) applied to the inner and outer surfaces of each pinna (i.e. 0.5 mg or 2 mg AA or 2 μg PMA per ear). Mice were anaesthetised again to re-measure the ears at 1 h post-AA application and 5 h after PMA. The difference in ear swelling pre- and post-application of inflammogen for each ear was calculated, and the average for the two ears of each mouse taken. The difference in mean swelling of each test group compared to the group given vehicle alone was calculated using a general ANOVA using Dunnett's Multiple Comparison test when multiple compounds were tested in the one experiment or a two-tailed […] t-test when only one compound was tested (Prism 4, Graphpad Software). The data has been presented graphically as the mean percentage inhibition of oedema, calculated as: […]. Results

[1] = system: A7r5 rat aortic smooth muscle cells; assay: Proliferation of A7r5 rat aortic smooth muscle cells; type: cell-based; settings: A7R5, 72 h, three days, read-out: IC50, inhibition of proliferation in A7r5 cells
Method: The effect of test compounds on human umbilical vein smooth muscle cells (HUVSMC), was examined. Cells, tissue explants from a neonate (HRI—passage 2), were seeded into 96 well plates at 1×10^3 cells per well, and allowed to attach for 24 hours. They were then washed twice and incubated in medium without foetal calf serum (FCS) for 24-48 hours to serum-starve them. Test compounds were prepared in medium without FCS and added to the plates and incubated for one hour. Medium with FCS was added to give a final concentration of 10% and the plates incubated for 4-5 days until the controls were just confluent.
The effect of test compounds on rat aortic smooth muscle cell line (A7r5) and another cell line from the media of rat aorta (A10) was examined. The methodology was the same as for HUVSMC, except that the cells were treated with compound for three days.

[2] = system: human umbilical vein smooth muscle cells (HUVSMC); assay: Proliferation of human umbilical vein smooth muscle cells (MTT); type: cell-based
Outline: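 Read-out is MTT absorbance expressed as test/control*100−100 versus FCS-stimulated untreated controls. Serum-starved smooth muscle cells (1.6×10^3/well, 20 h without FCS) got 10 μM final analogue for 1 h before 10% FCS, then grew about 5 days to control confluence.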

[3] = system: PGE2 synthesis in RA-stimulated U937 cells; assay: PGE2 synthesis in RA-stimulated U937 cells; type: cell-based, human
Method: U937 cells were thawed and resuspended in RPM1 and 10% FCS at 2×10^5 cells per ml. The cells were incubated in 5% CO2 at 37° C. and expanded in growing culture to at least 6.4×10^7 total cells. The cells were then resuspended in fresh medium and cultured with […] (RA) at 2×10^5 cells per ml for a further 3 days (72 h). RA treated cells were washed 2× in serum-free RPM and resuspended in serum-free medium at 5×10^6 cells per ml. The cells were aliquotted into Teflon tubes at 1 ml per tube. Working stock solutions of each test compound were prepared at 0.1 mM, 1 mM and 10 mM as described above. For each test compound at each working dilution, 10 μl was added to 1 ml cells to achieve a final concentration of 0 (DMSO alone), 1, 10, and 100 μM for each test compound. Cells were incubated in triplicate with each concentration of test compound for 15 min at 37° C. After 15 min pre-incubation, each 1 ml tube of cells received 5 μl of a […] solution of the calcium ionophore A23187 (to achieve 0.5 μM A23187). Incubation at 37° C. was continued for a further 30 min. After incubation, supernatants were collected by centrifugation at 2000 rpm for 10 min and stored at −20° C. until required for assay.

[4] = system: neonatal foreskin fibroblasts (NFF); assay: Toxicity to normal cells, neonatal foreskin fibroblasts; type: cell-based; settings: Fibroblast
Method: IC50 values were determined for each cell line. Cells were seeded in 96-well plates at an appropriate cell density as determined from growth kinetics analysis and cultured for 5 days in the absence and presence of the test compounds. Cell proliferation was assessed after the addition of 20 μl of 3-4,5 dimethylthiazol-2,5-diphenyl tetrazolium bromide (MTT, 2.5 mg/ml in PBS, Sigma) for 3-4 hrs at 37° C. according to manufacturer's instructions. IC50 values were calculated from semi-log plots of % of control proliferation on the y-axis against log dose on the x-axis.
The neonatal foreskin fibroblasts (NFF) were a gift from Dr. Peter Parsons (Queensland Institute of Medical Research). Rabbit kidney (RK-13) cells were obtained from Miller Whalley (Macquarie University). Both cell lines were cultured in RPMI supplemented with 10% FCS(CSL, Australia), penicillin (100 U/ml), streptomycin ([…]), L-glutamine (2 mM) and sodium bicarbonate (1.2 g/L), and cultured at 37° C. in a humidified atmosphere of 5% CO2. IC50 values were determined as described above.

MM200 = assay: Anti-cancer activity, MM200 melanoma cells (MTT); type: cell-based; settings: 120 h; 5 days, MTT
AA-induced ear oedema = assay: Arachidonic acid (AA)-induced ear swelling in mice; type: in vivo, BALB/c mice; settings: 25 mg/kg i/p; 1 h post-AA application
Method: as §1

HPAC = assay: Anti-cancer activity, HPAC pancreatic cancer cells (MTT); type: cell-based; settings: Homo sapiens, 120 h, 5 days
NCI-H460 = assay: Anti-cancer activity, NCI-H460 large cell lung cancer cells (MTT); type: cell-based; settings: Homo sapiens, NCI-H460, 120 h, 5 days, read-out: IC50 μM, NCI-H460 Lung (NSCLC)
[5] = normal, non-transformed cells, read-out: IC50 μM, NFF Fibroblast
[6] = read-out: toxicity to normal fibroblast cell line / NFFs (IC50)

`Oc1ccc(C2=Cc3cc4c(cc3OC2)OCN(Cc2ccccc2)C4)cc1` [Compound 1, 4-(3-Benzyl-2,3,4,8-tetrahydrochromeno[6,7-e][1,3]oxazin-7-yl)phenol] was tested, and the IC50 (CP70) was 5.51 ± 2.6 µM, the “% Change compared with vehicle” value (PMA-induced ear oedema) was −9% and the “Change in ear thickness (mean ± SD, × 0.01 mm)” value (“Change … (mean ± SD, × 0.01 mm)” below) (PMA-induced ear oedema) was 28.9 ± 3.1 × 0.01 mm. For the same compound, the IC50 [1] was 23 µM, the IC50 ([2]; Homo sapiens, average over three different assays, 4-5 days, read-out: average IC50, inhibition of proliferation of HUVSMC) was 15 µM and the “PGE2” value ([3]; test compound 1 μM, A23187) was 1.431 ± 0.154 pg. For the same compound, the “PGE2” value ([3]; test compound 10 μM, A23187) was 0.702 ± 0.237 pg, the “PGE2” value ([3]; test compound 100 μM, A23187) was 0.555 ± 0.064 pg and the IC50 [4, 5] was 15.1 µM. The IC50 [4, 6] was roughly 15 µM, the IC50 (MM200) was 6.1 ± 1.6 µM and the “% Change compared with vehicle” value (AA-induced ear oedema) was −18%. For the same compound, the “Change … (mean ± SD, × 0.01 mm)” value (AA-induced ear oedema) was 20 ± 0.9 × 0.01 mm, the IC50 (HPAC) was 18.2 ± 8.1 µM and the IC50 (NCI-H460) was 4.61 µM.
In the case of `CC(c1ccccc1)N1COc2cc3c(cc2C1)C=C(c1ccc(O)cc1)CO3` (stereo not shown) [Compound 2, 4-(3-(1-Phenylethyl)-2,3,4,8-tetrahydrochromeno[6,7-e][1,3]oxazin-7-yl)phenol], the IC50 (CP70) is reported as 8.1 ± 3 µM, the “% Change compared with vehicle” value (PMA-induced ear oedema) is reported as −3% and the “Change … (mean ± SD, × 0.01 mm)” value (PMA-induced ear oedema) is reported as 30.9 ± 2.2 × 0.01 mm. For the same compound, the “effect on proliferation of HUVSMCs induced by FCS” value ([2]; 10 μM, 10% FCS, 5 days, FIG. 8) was “significantly inhibited the proliferation”, the “effect on PGE2 synthesis” value [3] was “inhibit PGE2 synthesis” and the “PGE2” value ([3]; test compound 1 μM, A23187) was 1.303 ± 0.044 pg. For the same compound, the “PGE2” value ([3]; test compound 10 μM, A23187) was 0.948 ± 0.111 pg, the “PGE2 (pg)” value ([3]; test compound 100 μM, A23187) was 0.158 ± 0.027^a pg and the IC50 [4, 5] was 33.2 µM. For the same compound, the IC50 [4, 6] was greater than 30 µM, the IC50 (MM200) was 4.76 ± 1.3 µM and the “% Change compared with vehicle” value (AA-induced ear oedema) was −39%. The “Change … (mean ± SD, × 0.01 mm)” value (AA-induced ear oedema) was 15.9 ± 4.2 × 0.01 mm, the IC50 (HPAC) was 18.3 ± 11 µM and the IC50 (NCI-H460) was 8.77 ± 3.7 µM.
`Oc1cccc(C2=Cc3ccc(O)cc3OC2)c1` [Compound 37-DHE, 3′,7-dihydroxy-isoflav-3-ene, reference compound] was tested, and the IC50 [1] was 45 µM.
